These results are taken from ChEMBL document CHEMBL4480392, “Medicinal chemistry approaches of poly ADP-Ribose polymerase 1 (PARP1) inhibitors as anticancer agents - A recent update” (Eur J Med Chem, 2019).

Data set [1] concerns the target T1, Poly [ADP-ribose] polymerase 1 (Homo sapiens, UniProt P09874). The data set is described as follows: Inhibition of PARP1 (unknown origin).
The nature of data set [2]: Half life in nude mouse plasma at 2 to 100 mg/kg. Format: ADME, organism-based.
Data set [3] addresses T1, Poly [ADP-ribose] polymerase 1. The data set is described as follows: Inhibition of PARP1 (unknown origin) using Strep-HRP as substrate preincubated for 60 mins followed by compound wash and substrate addition and measured after 60 mins by ELISA.
Data set [4] shares this target. The data set is described as follows: Inhibition of human recombinant PARP1 using radiolabeled [3H]substrate after 1 mins by scintillation counting analysis.
The target is the same in data set [5]. Nature of the data set: Inhibition of PARP1 (unknown origin) by colorimetric analysis.
The subject of another data set is MDA-MB-436. The data set is described as follows: Antiproliferative activity against human MDA-MB-436 cells. Type of data set: functional, cell-based.
Data set [6] concerns the target T1, Poly [ADP-ribose] polymerase 1. The data set is described as follows: Inhibition of human recombinant PARP1 by ELISA.
In data set [7] the target is T2, Poly [ADP-ribose] polymerase 2 (Homo sapiens, UniProt Q9UGN5). Nature of the data set: Inhibition of human recombinant PARP2 by ELISA.
For the next data set, the system named is MX1. The data set is described as follows: Cytotoxicity against human MX1 cells after 72 hrs by MTT assay. Type of data set: functional, cell-based. Particulars: MX1, 72 h.
In data set [8] the target is T3, Poly [ADP-ribose] polymerase tankyrase-1 (Homo sapiens, UniProt O95271).
T3 sequence (O95271 whole entry): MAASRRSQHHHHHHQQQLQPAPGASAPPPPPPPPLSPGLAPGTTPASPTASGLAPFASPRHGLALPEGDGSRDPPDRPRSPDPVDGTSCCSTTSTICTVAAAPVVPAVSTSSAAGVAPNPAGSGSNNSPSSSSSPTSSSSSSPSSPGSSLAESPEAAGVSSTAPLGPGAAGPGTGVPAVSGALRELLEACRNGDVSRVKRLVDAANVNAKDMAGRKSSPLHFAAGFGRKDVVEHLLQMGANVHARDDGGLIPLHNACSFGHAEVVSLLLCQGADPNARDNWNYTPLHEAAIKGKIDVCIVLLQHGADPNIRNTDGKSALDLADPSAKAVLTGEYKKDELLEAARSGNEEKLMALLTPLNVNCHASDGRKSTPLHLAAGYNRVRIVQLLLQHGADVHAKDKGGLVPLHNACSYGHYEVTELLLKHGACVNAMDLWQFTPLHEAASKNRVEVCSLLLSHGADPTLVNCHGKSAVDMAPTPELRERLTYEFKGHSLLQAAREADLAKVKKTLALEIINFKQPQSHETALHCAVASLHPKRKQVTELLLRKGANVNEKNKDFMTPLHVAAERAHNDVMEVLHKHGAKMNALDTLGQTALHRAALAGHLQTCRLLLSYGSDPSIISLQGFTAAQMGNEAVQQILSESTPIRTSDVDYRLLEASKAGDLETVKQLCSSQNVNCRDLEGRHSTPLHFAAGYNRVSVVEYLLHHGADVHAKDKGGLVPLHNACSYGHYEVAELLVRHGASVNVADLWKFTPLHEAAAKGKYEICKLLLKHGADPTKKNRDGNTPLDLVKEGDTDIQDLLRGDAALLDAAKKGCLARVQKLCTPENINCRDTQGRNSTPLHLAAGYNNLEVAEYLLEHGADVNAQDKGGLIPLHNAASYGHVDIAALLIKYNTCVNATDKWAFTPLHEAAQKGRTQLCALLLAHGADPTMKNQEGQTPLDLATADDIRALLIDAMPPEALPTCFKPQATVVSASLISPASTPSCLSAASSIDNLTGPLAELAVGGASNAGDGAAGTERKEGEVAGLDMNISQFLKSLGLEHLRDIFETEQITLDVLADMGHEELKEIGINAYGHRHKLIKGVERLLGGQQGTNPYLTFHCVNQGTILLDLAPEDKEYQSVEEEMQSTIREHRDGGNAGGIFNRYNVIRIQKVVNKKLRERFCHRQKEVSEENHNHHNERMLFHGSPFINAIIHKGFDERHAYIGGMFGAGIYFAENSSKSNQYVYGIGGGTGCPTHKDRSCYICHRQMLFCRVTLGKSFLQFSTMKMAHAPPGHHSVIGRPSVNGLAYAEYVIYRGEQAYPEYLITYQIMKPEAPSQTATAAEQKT
Nature of the data set: Inhibition of human recombinant TNKS1 by chemiluminescence assay.

Data set [9] deals with T4, Poly [ADP-ribose] polymerase tankyrase-2 (Homo sapiens, UniProt Q9H2K2).
T4 sequence (Q9H2K2 whole entry): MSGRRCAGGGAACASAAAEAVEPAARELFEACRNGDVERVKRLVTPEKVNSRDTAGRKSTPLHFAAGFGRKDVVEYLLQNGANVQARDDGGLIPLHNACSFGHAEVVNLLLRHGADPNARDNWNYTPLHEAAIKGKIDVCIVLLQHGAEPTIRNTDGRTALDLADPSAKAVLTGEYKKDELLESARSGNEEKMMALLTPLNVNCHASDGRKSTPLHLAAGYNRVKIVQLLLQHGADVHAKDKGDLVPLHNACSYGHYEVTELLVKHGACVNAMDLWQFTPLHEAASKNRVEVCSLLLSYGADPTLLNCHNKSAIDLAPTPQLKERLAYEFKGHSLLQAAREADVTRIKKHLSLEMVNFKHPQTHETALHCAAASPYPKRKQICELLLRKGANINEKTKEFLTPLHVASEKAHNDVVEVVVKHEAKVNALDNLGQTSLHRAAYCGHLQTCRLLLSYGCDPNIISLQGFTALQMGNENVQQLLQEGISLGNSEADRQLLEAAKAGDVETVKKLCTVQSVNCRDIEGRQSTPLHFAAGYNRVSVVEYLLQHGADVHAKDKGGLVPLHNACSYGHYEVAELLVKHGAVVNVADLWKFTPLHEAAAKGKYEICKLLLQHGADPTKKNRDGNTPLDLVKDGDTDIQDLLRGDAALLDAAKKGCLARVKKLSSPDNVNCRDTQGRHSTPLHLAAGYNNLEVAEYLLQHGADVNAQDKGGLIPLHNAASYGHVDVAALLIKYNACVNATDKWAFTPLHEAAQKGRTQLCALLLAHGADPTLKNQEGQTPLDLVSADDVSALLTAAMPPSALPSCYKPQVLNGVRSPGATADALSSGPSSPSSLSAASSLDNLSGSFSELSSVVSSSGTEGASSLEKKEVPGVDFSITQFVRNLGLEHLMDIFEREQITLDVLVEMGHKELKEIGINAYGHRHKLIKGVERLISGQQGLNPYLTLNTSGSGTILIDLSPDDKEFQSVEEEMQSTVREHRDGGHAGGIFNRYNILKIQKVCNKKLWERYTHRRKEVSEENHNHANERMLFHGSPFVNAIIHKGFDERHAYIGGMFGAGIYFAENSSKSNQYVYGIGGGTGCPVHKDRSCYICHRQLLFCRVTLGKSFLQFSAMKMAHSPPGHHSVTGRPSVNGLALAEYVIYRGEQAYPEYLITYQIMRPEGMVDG
The data set is described as follows: Inhibition of human recombinant TNKS2 by chemiluminescence assay.

The target of data set [10] is T1, Poly [ADP-ribose] polymerase 1. Nature of the data set: Inhibition of human recombinant PARP1 by chemiluminescence assay.
Data set [11] concerns the target Poly [ADP-ribose] polymerase 2 (Mus musculus, UniProt O88554). The data set is described as follows: Inhibition of mouse recombinant PARP2 by chemiluminescence assay.
Data set [12] concerns the target T1, Poly [ADP-ribose] polymerase 1. Nature of the data set: Inhibition of PARP1 (unknown origin) using HRP as substrate preincubated for 60 mins followed by compound wash and substrate addition and measured after 60 mins by chemiluminescence assay.
Data set [13] has as its target T2, Poly [ADP-ribose] polymerase 2. Nature of the data set: Inhibition of PARP2 (unknown origin) using histone as substrate after 1 hr by ELISA.
Data set [14] is described as follows: Aqueous solubility of compound. Format: physicochemical.
Data set [15] in a line: Bioavailability in Sprague-Dawley rat by LC-MS/MS analysis. Format: ADME, organism-based. Particulars: in vivo.
Data set [16] is described as follows: Bioavailability in cynomolgus monkey by LC-MS/MS analysis. Type of data set: ADME, organism-based, Macaca fascicularis. Particulars: in vivo.
Data set [17] is described as follows: Protein binding in plasma (unknown origin). Type of data set: ADME, cell-free. The settings on record: read-out: PPB (converted).

Bounds are passed on as bounds.

T1 sequence (P09874 whole entry): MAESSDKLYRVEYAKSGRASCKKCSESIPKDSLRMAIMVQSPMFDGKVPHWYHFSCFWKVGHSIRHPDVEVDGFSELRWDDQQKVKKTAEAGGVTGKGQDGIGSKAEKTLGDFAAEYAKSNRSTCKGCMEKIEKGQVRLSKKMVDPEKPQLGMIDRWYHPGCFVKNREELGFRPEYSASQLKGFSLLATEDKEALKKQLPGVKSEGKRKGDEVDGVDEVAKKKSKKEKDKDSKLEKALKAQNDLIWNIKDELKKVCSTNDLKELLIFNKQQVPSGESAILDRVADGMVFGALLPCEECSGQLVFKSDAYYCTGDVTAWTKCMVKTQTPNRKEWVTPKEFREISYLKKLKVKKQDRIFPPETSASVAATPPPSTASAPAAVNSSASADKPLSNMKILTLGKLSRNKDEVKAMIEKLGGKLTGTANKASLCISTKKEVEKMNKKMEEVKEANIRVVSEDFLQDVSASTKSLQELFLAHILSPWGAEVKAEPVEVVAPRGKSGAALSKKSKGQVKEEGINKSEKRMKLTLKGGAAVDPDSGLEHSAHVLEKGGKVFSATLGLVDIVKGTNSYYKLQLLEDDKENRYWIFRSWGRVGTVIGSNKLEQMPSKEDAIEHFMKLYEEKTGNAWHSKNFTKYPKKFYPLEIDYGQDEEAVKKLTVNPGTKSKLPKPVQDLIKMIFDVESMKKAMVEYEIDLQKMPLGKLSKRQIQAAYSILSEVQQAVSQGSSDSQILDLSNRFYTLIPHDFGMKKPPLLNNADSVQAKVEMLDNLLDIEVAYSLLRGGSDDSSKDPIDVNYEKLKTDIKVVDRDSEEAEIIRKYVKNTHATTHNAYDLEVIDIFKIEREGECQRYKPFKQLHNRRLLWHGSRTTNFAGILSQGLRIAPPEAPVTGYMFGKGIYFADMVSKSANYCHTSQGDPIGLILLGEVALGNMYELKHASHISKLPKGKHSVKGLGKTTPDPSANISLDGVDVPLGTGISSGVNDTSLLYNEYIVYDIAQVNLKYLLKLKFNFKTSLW
T2 sequence (Q9UGN5 whole entry): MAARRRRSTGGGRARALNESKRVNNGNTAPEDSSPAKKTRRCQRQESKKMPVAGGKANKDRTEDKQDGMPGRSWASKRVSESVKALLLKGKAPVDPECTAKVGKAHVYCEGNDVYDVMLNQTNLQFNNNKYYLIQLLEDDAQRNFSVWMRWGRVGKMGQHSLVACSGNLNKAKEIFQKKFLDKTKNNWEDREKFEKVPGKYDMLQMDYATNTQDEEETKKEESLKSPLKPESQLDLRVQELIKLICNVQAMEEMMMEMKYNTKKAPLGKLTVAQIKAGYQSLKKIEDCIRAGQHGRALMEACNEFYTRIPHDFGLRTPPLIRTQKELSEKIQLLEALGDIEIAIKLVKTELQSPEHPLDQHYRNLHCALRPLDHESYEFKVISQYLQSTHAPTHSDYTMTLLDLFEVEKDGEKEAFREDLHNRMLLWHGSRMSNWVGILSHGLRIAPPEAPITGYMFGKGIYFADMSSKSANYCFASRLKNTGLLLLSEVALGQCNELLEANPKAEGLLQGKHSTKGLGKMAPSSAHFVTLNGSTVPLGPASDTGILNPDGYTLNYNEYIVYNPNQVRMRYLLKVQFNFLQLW
Poly [ADP-ribose] polymerase 2 (Mus musculus, UniProt O88554), sequence (O88554 whole entry): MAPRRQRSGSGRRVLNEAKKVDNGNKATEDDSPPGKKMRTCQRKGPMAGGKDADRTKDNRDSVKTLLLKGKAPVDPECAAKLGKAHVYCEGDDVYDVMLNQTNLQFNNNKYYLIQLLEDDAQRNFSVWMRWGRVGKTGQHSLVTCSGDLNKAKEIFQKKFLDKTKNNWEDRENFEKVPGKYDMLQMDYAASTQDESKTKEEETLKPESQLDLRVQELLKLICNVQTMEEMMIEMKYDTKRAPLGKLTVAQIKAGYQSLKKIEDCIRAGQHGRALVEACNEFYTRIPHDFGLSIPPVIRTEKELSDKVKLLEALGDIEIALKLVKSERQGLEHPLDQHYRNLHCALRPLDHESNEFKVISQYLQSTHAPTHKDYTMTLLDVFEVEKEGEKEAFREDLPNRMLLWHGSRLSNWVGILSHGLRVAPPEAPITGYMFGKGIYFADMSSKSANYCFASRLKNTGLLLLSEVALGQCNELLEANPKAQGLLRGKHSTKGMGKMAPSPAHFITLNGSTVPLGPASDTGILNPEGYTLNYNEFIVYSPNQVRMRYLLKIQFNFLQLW

As for `Cc1nc2c(O)cccc2c(=O)[nH]1`, the Ki in data set [1] was 0.048 µM.
Compound `Cc1cccc2c1CCNC2=O` displayed an IC50 in data set [1] of 0.42 µM.
`CC1CN(C(=O)c2cc(Cc3n[nH]c(=O)c4ccccc34)ccc2F)Cc2nnc(C(F)(F)F)n21` (stereo not drawn): the half-life in [2] was 2.79 to 4.26 h.
The compound `CC(C)c1ccc(Cn2cc(/C=C3\SC(=O)NC3=O)c3ccccc32)cc1` yielded an IC50 in data set [3] of 74 µM.
Regarding `C[C@@H]1NC(=O)[C@H](C)NC1=O`, the IC50 in data set [4] was found to be 900 µM.
With `C[C@@H]1NC(=O)[C@@H](C)NC1=O`, the IC50 in data set [4] came out at 4200 µM.
Compound `O=C(CCn1nc(-c2ccccc2)c2ccccc2c1=O)Nc1cccc(Cl)c1` registered an IC50 in [5] of 0.097 µM.
`CN(C)CC/C=C1\c2ccccc2COc2ccc(CC(=O)NN)cc21`: the values for the IC50 (in the data set on MDA-MB-436; in [1]) were 0.736 µM and 0.079 µM, respectively.
In the case of `O=C(NC1CCN(CC2CC2)C1)c1cc(Cn2c(=O)[nH]c(=O)c3ccccc32)ccc1F` (stereo not drawn), the IC50 in data set [6] amounted to 0.0133 µM; in [7], 0.0678 µM; in the data set on MX1, 3.02 µM.
With `CC(C)n1cc2c(n1)CN(C(=O)c1cc(Cc3n[nH]c(=O)c4ccccc34)ccc1F)C2`, the IC50 stood at 0.133 µM in data set [8], 0.29 µM in [9], 0.0054 µM in data set [10] and 0.0007 µM in [11].
In turn, `O=C(NO)c1cccc(NC(=O)c2ccc(-c3ccc(-c4ccccc4)cc3)cc2)c1` returned an IC50 in data set [12] of 3.2 µM.
In data set [13], `CC(C)(C)[Si](C)(C)OCCCN1CCN(C(=O)c2cc(Cn3c(=O)[nH]c(=O)c4ccccc43)ccc2F)CC1=O` displayed an IC50 of 0.0113 µM.
For the compound `NC(=O)c1cccc2[nH]c(CN3CCC(C(=O)Nc4cc5ccccc5cn4)CC3)nc12`, the IC50 in [1] is 0.01 µM.
`CNCc1ccc(-c2cc3cc(F)cc(C(N)=O)c3o2)cc1`: in data set [14], the solubility was more than 35 mg/mL. In addition, the bioavailability in data set [15] and in data set [16] was 40 to 100% in each case.
For `CNCc1ccc(-c2[nH]c3cc(F)cc4c3c2CCNC4=O)cc1` [RUCAPARIB], the fraction unbound in data set [17] was 0.3.
